Laboratory results published in ChEMBL document CHEMBL1201862, “PubChem BioAssay data set” (2004).
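Cells were grown in 96-well plates and exposed to each compound for 48 hours at five concentrations; endpoints were interpolated linearly between bracketing concentrations, or set to the highest concentration if not reached. GI50 is the concentration that inhibits growth by half.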 Active and inactive are the calls of the source. No stated cut-off is given here; in the data, active = GI50 up to about 1.1 µM and inactive = higher.

Experiments:
Test in all cases: inhibition of tumour cell growth, NCI panel, 48 h
[1] = tested on: A549
[2] = tested on: EKVX
[3] = tested on: 786-0
[4] = tested on: NCI-H522
[5] = tested on: SW-620
[6] = tested on: IGROV-1
[7] = tested on: HL-60
[8] = tested on: SK-MEL-28
[9] = tested on: SN12C
[10] = tested on: SF-268
[11] = tested on: SNB-75
[12] = tested on: PC-3
[13] = tested on: ACHN
[14] = tested on: T47D
[15] = tested on: MDA-N
[16] = tested on: OVCAR-5
[17] = tested on: RPMI-8226
[18] = tested on: Hs-578T
[19] = tested on: KM12
[20] = tested on: OVCAR-4
[21] = tested on: DU-145
[22] = tested on: OVCAR-8
[23] = tested on: NCI-H460
[24] = tested on: NCI-H226
[25] = tested on: COLO 205
[26] = tested on: CCRF-CEM
[27] = tested on: K562
[28] = tested on: SF-295
[29] = tested on: SR
[30] = tested on: SK-MEL-5
[31] = tested on: SK-MEL-2
[32] = tested on: HCT-15
[33] = tested on: MOLT-4
[34] = tested on: NCI-H23
[35] = tested on: LOX IMVI
[36] = tested on: HOP-92
[37] = tested on: U-251
[38] = tested on: MCF7
[39] = tested on: MDA-MB-435
[40] = tested on: SK-OV-3
[41] = tested on: UACC-62
[42] = tested on: HOP-62
[43] = tested on: NCI/ADR-RES
[44] = tested on: UACC-257
[45] = tested on: HCT-116
[46] = tested on: SNB-19
[47] = tested on: CAKI-1
[48] = tested on: RXF 393
[49] = tested on: A498
[50] = tested on: Malme-3M
[51] = tested on: M14
[52] = tested on: OVCAR-3
[53] = tested on: SF-539
[54] = tested on: MDA-MB-231
[55] = tested on: TK-10
[56] = tested on: BT-549
[57] = tested on: HT-29

Question: For c1ccc(NN(Cc2cnccn2)c2ccccc2)cc1, which GI50 [1] is on record?
Answer: 42.2 µM (inactive)

Question: And the GI50 [2]?
Answer: 75.5 µM (inactive)

Question: What about the GI50 [3] of the same molecule?
Answer: > 100 µM (inactive)

Question: What about the GI50 [4] of the same molecule?
Answer: 44 µM (inactive)

Question: What about the GI50 [5] of the same molecule?
Answer: > 100 µM (inactive)

Question: What about the GI50 [6] of the same molecule?
Answer: 83.2 µM (inactive)

Question: And the GI50 [7]?
Answer: 67.5 µM (inactive)

Question: What about the GI50 [8] of the same molecule?
Answer: > 100 µM (inactive)

Question: And the GI50 [9]?
Answer: 63.8 µM (inactive)

Question: And the GI50 [10]?
Answer: > 100 µM (inactive)

Question: What about the GI50 [11] of the same molecule?
Answer: > 100 µM (inactive)

Question: And the GI50 [12]?
Answer: 65.8 µM (inactive)

Question: And the GI50 [13]?
Answer: > 100 µM (inactive)

Question: What about the GI50 [14] of the same molecule?
Answer: 68.4 µM (inactive)

Question: And the GI50 [15]?
Answer: 40.2 µM (inactive)

Question: What about the GI50 [16] of the same molecule?
Answer: > 100 µM (inactive)

Question: What about the GI50 [17] of the same molecule?
Answer: 55.7 µM (inactive)

Question: What about the GI50 [18] of the same molecule?
Answer: > 100 µM (inactive)

Question: What about the GI50 [19] of the same molecule?
Answer: > 100 µM (inactive)

Question: And the GI50 [20]?
Answer: 63 µM (inactive)

Question: What about the GI50 [21] of the same molecule?
Answer: > 100 µM (inactive)

Question: And the GI50 [22]?
Answer: 66.7 µM (inactive)

Question: And the GI50 [23]?
Answer: 91.8 µM (inactive)

Question: And the GI50 [24]?
Answer: 80.2 µM (inactive)

Question: And the GI50 [25]?
Answer: 84.3 µM (inactive)

Question: What about the GI50 [26] of the same molecule?
Answer: 10.5 µM (inactive)

Question: What about the GI50 [27] of the same molecule?
Answer: 47.5 µM (inactive)

Question: What about the GI50 [28] of the same molecule?
Answer: 73.8 µM (inactive)

Question: And the GI50 [29]?
Answer: 61.9 µM (inactive)

Question: And the GI50 [30]?
Answer: 40.2 µM (inactive)

Question: And the GI50 [31]?
Answer: > 100 µM (inactive)

Question: And the GI50 [32]?
Answer: 79.8 µM

Question: And the GI50 [33]?
Answer: 42.3 µM (inactive)

Question: And the GI50 [34]?
Answer: 83 µM (inactive)

Question: And the GI50 [35]?
Answer: 77.6 µM (inactive)

Question: What about the GI50 [36] of the same molecule?
Answer: 19.1 µM (inactive)

Question: What about the GI50 [37] of the same molecule?
Answer: 65 µM (inactive)

Question: What about the GI50 [38] of the same molecule?
Answer: 44.9 µM (inactive)

Question: What about the GI50 [39] of the same molecule?
Answer: 89.9 µM (inactive)

Question: And the GI50 [40]?
Answer: > 100 µM (inactive)

Question: And the GI50 [41]?
Answer: 81.8 µM (inactive)

Question: And the GI50 [42]?
Answer: > 100 µM (inactive)

Question: And the GI50 [43]?
Answer: 40.5 µM (inactive)

Question: And the GI50 [44]?
Answer: 51.6 µM (inactive)

Question: And the GI50 [45]?
Answer: 60.5 µM (inactive)

Question: And the GI50 [46]?
Answer: > 100 µM (inactive)

Question: And the GI50 [47]?
Answer: > 100 µM (inactive)

Question: What about the GI50 [48] of the same molecule?
Answer: > 100 µM (inactive)

Question: And the GI50 [49]?
Answer: 28.8 µM (inactive)

Question: And the GI50 [50]?
Answer: > 100 µM (inactive)

Question: What about the GI50 [51] of the same molecule?
Answer: 90.2 µM (inactive)

Question: And the GI50 [52]?
Answer: 63.4 µM (inactive)

Question: What about the GI50 [53] of the same molecule?
Answer: > 100 µM (inactive)

Question: And the GI50 [54]?
Answer: 76.9 µM (inactive)

Question: And the GI50 [55]?
Answer: > 100 µM (inactive)

Question: What about the GI50 [56] of the same molecule?
Answer: > 100 µM (inactive)

Question: And the GI50 [57]?
Answer: 97.3 µM (inactive)
